Assays:
ECHOR (seed) = test: Assay for herbicidal activity, paddy pots: ECHOR; assay type: in vivo, Echinochloa crus-galli var. oryzicola; details: three weeks after application, 0 untreated control, 100 complete kill
From the text: (§1) To evaluate herbicidal activity against the paddy weeds in the paddy rice (ORYSA: Oryza sativa L.), the herbicidal activity of the compounds of the invention was compared to that of the compound No.109 (compound A) disclosed in U.S. Pat. […] The paddy weeds tested were ECHOR (Echinochloa crus-galli var. oryzicola), SCPJU (Scirpus juncoides ROXB), MOOVA (Monochoria vaginalis […] (Cyperus serotinus ROTTB), and SAGPY (Sagittaria pygmaea MTQ). The vessels employed were plastic pots having an area of 140 cm^2 and filled with a sandy loam soil containing 1.2% organic matter (pH 6).

ORYSA (3-leaf stage) = test: Assay for herbicidal activity, paddy pots: phytotoxicity to transplanted rice seedlings; assay type: in vivo, Oryza sativa L.
From the text: as §1

ORYSA (seed) = test: Assay for herbicidal activity, paddy pots: phytotoxicity to seeded (pregerminated) rice; assay type: in vivo, Oryza sativa L.; details: three weeks after application, 0 untreated control, 100 complete kill
From the text: as §1

MOOVA (seed) = test: Assay for herbicidal activity, paddy pots: MOOVA; assay type: in vivo, Monochoria vaginalis PRESL; details: three weeks after application, 0 untreated control, 100 complete kill
From the text: as §1

SCPJU (seed) = test: Assay for herbicidal activity, paddy pots: SCPJU; assay type: in vivo, Scirpus juncoides ROXB; details: three weeks after application, 0 untreated control, 100 complete kill
From the text: as §1

CYPSE (tuber) = test: Assay for herbicidal activity, paddy pots: CYPSE; assay type: in vivo, Cyperus serotinus ROTTB; details: three weeks after application, 0 untreated control, 100 complete kill
From the text: as §1

SAGPY (tuber) = test: Assay for herbicidal activity, paddy pots: SAGPY; assay type: in vivo, Sagittaria pygmaea MTQ; details: three weeks after application, 0 untreated control, 100 complete kill
From the text: as §1

Row | Structure (SMILES) | ECHOR (seed) herbicidal activity, visual percentage grading (ECHOR (seed); 0.016 kg/ha) | ECHOR (seed) herbicidal activity, visual percentage grading (ECHOR (seed); 0.063 kg/ha) | ECHOR (seed) herbicidal activity, visual percentage grading (ECHOR (seed); 0.250 kg/ha) | ECHOR (seed) herbicidal activity, visual percentage grading (ECHOR (seed); 1.000 kg/ha) | ECHOR (seed) herbicidal activity, visual percentage grading (ECHOR (seed); 4.000 kg/ha) | MOOVA (seed) herbicidal activity, visual percentage grading (MOOVA (seed); 0.016 kg/ha) | MOOVA (seed) herbicidal activity, visual percentage grading (MOOVA (seed); 0.063 kg/ha) | MOOVA (seed) herbicidal activity, visual percentage grading (MOOVA (seed); 0.250 kg/ha) | MOOVA (seed) herbicidal activity, visual percentage grading (MOOVA (seed); 1.000 kg/ha) | MOOVA (seed) herbicidal activity, visual percentage grading (MOOVA (seed); 4.000 kg/ha) | SCPJU (seed) herbicidal activity, visual percentage grading (SCPJU (seed); 0.016 kg/ha) | SCPJU (seed) herbicidal activity, visual percentage grading (SCPJU (seed); 0.063 kg/ha) | SCPJU (seed) herbicidal activity, visual percentage grading (SCPJU (seed); 0.250 kg/ha) | SCPJU (seed) herbicidal activity, visual percentage grading (SCPJU (seed); 1.000 kg/ha) | SCPJU (seed) herbicidal activity, visual percentage grading (SCPJU (seed); 4.000 kg/ha) | CYPSE (tuber) herbicidal activity, visual percentage grading (CYPSE (tuber); 0.016 kg/ha) | CYPSE (tuber) herbicidal activity, visual percentage grading (CYPSE (tuber); 0.063 kg/ha) | CYPSE (tuber) herbicidal activity, visual percentage grading (CYPSE (tuber); 0.250 kg/ha) | CYPSE (tuber) herbicidal activity, visual percentage grading (CYPSE (tuber); 1.000 kg/ha) | CYPSE (tuber) herbicidal activity, visual percentage grading (CYPSE (tuber); 4.000 kg/ha) | also measured
1 | Cc1ccsc1C1=NOC(C)(COCc2ccccc2F)C1 (stereo not drawn) [EXAMPLE 6, 5-(2-fluorobenzyl)oxymethyl-5-methyl-3-(4-methylthiophene-5-yl)-1,2-isoxazoline] | 20% | 100% | 100% | 100% | 100% | 0% | 70% | 80% | 80% | 100% | 20% | 80% | 80% | 100% | 100% | 100% | 100% | 100% | 100% | 100% | ORYSA (3-leaf stage) phytotoxicity, visual percentage grading (ORYSA (3-leaf stage); 0.016 kg/ha, three weeks after application, 0 untreated control, 100 complete kill): 0%; ORYSA (3-leaf stage) phytotoxicity, visual percentage grading (ORYSA (3-leaf stage); 0.063 kg/ha, three weeks after application, 0 untreated control, 100 complete kill): 20%; ORYSA (3-leaf stage) phytotoxicity, visual percentage grading (ORYSA (3-leaf stage); 0.250 kg/ha, three weeks after application, 0 untreated control, 100 complete kill): 20%; ORYSA (3-leaf stage) phytotoxicity, visual percentage grading (ORYSA (3-leaf stage); 1.000 kg/ha, three weeks after application, 0 untreated control, 100 complete kill): 30%; ORYSA (3-leaf stage) phytotoxicity, visual percentage grading (ORYSA (3-leaf stage); 4.000 kg/ha, three weeks after application, 0 untreated control, 100 complete kill): 30%; ORYSA (seed) phytotoxicity, visual percentage grading (ORYSA (seed); 0.016 kg/ha): 0%; ORYSA (seed) phytotoxicity, visual percentage grading (ORYSA (seed); 0.063 kg/ha): 40%; ORYSA (seed) phytotoxicity, visual percentage grading (ORYSA (seed); 0.250 kg/ha): 100%; ORYSA (seed) phytotoxicity, visual percentage grading (ORYSA (seed); 1.000 kg/ha): 100%; ORYSA (seed) phytotoxicity, visual percentage grading (ORYSA (seed); 4.000 kg/ha): 100%; SAGPY (tuber) herbicidal activity, visual percentage grading (SAGPY (tuber); 0.016 kg/ha): 0%; SAGPY (tuber) herbicidal activity, visual percentage grading (SAGPY (tuber); 0.063 kg/ha): 0%; SAGPY (tuber) herbicidal activity, visual percentage grading (SAGPY (tuber); 0.250 kg/ha): 0%; SAGPY (tuber) herbicidal activity, visual percentage grading (SAGPY (tuber); 1.000 kg/ha): 30%; SAGPY (tuber) herbicidal activity, visual percentage grading (SAGPY (tuber); 4.000 kg/ha): 30%
2 | CC1(COCc2c(F)cccc2F)CC(c2ccc(Br)s2)=NO1 (stereo not drawn) [EXAMPLE 11, 5-(2,6-difluorobenzyl)oxymethyl-5-methyl-3-(2-bromothiophene-5-yl)-1,2-isoxazoline] | 20% | 70% | 100% | 100% | 100% | 30% | 50% | 90% | 100% | 100% | 0% | 0% | 20% | 30% | 80% | 0% | 0% | 40% | 100% | 100% | ORYSA (3-leaf stage) phytotoxicity, visual percentage grading (ORYSA (3-leaf stage); in vivo): 0%; SAGPY (tuber) herbicidal activity, visual percentage grading (SAGPY (tuber); 0.016 kg/ha): 0%; SAGPY (tuber) herbicidal activity, visual percentage grading (SAGPY (tuber); 0.063 kg/ha): 0%; SAGPY (tuber) herbicidal activity, visual percentage grading (SAGPY (tuber); 0.250 kg/ha): 0%; SAGPY (tuber) herbicidal activity, visual percentage grading (SAGPY (tuber); 1.000 kg/ha): 30%; SAGPY (tuber) herbicidal activity, visual percentage grading (SAGPY (tuber); 4.000 kg/ha): 50%
3 | COc1ccsc1C1=NOC(C)(COCc2c(F)cccc2F)C1 (stereo not drawn) [EXAMPLE 21, 5-(2,6-difluorobenzyl)oxymethyl-5-methyl-3-(4-methoxythiophene-5-yl)-1,2-isoxazoline] | 0% | 100% | 100% | 100% | 100% | 0% | 100% | 100% | 100% | 100% | 0% | 100% | 100% | 100% | 100% | 0% | 40% | 60% | 80% | 100% | SAGPY (tuber) herbicidal activity, visual percentage grading (SAGPY (tuber); 0.016 kg/ha): 0%; SAGPY (tuber) herbicidal activity, visual percentage grading (SAGPY (tuber); 0.063 kg/ha): 0%; SAGPY (tuber) herbicidal activity, visual percentage grading (SAGPY (tuber); 0.250 kg/ha): 0%; SAGPY (tuber) herbicidal activity, visual percentage grading (SAGPY (tuber); 1.000 kg/ha): 0%; SAGPY (tuber) herbicidal activity, visual percentage grading (SAGPY (tuber); 4.000 kg/ha): 0%
4 | CC1(COCc2c(F)cccc2F)CC(c2ccc([N+](=O)[O-])s2)=NO1 (stereo not drawn) [EXAMPLE 23, 5-(2,6-difluorobenzyl)oxymethyl-5-methyl-3-(2-nitrothiophene-5-yl)-1,2-isoxazoline] | 0% | 30% | 100% | 100% | 100% | 0% | 50% | 70% | 100% | 100% | 0% | 0% | 0% | 0% | 100% | 0% | 0% | 50% | 80% | 100% | SAGPY (tuber) herbicidal activity, visual percentage grading (SAGPY (tuber); 0.016 kg/ha): 0%; SAGPY (tuber) herbicidal activity, visual percentage grading (SAGPY (tuber); 0.063 kg/ha): 0%; SAGPY (tuber) herbicidal activity, visual percentage grading (SAGPY (tuber); 0.250 kg/ha): 0%; SAGPY (tuber) herbicidal activity, visual percentage grading (SAGPY (tuber); 1.000 kg/ha): 0%; SAGPY (tuber) herbicidal activity, visual percentage grading (SAGPY (tuber); 4.000 kg/ha): 0%
